Laboratory results from patent publication US12396963B2, “Cannabidiol-type cannabinoid compound” (JAZZ PHARMACEUTICALS RESEARCH UK LIMITED, priority 2019, dated 2025).

Tests used:
[1] = tested on: mouse model of generalised seizure; assay: Maximal electroshock seizure threshold (MEST) test in the mouse, Example 3; settings: CC50, 30 min pre-treatment
Method: The efficacy of CBD-C1 was tested in a mouse model of generalised seizure, the maximal electroshock seizure threshold (M EST) test, as in Example 2.
Naïve mice were acclimatised to the procedure room in their home cages for up to 7 days, with food and water available ad libitum.
All animals were weighed at the beginning of the study and randomly assigned to treatment groups based on a mean distribution of body weight across groups.
The first animal within a treatment group was given a shock at the expected or estimated CC50 current. For subsequent animals, the current was lowered or raised depending on the convulsions outcome from the preceding animal.
Data generated from each treatment group were used to calculate the CC50±SEM values for the treatment group.
Vehicle: (5% ethanol, 5% solutol, 90% Saline) was prepared as follows: 2 mL of ethanol, 2 mL of solutol were warmed to 60° C., in 36 mL of saline (1:1:18).
The test compound, CBD-C1 was prepared according to the method described in Example 1. […]
CBD-C1 effects were also calculated as percentage change in CC50 from the vehicle control group.
Significant difference between drug-treated animals and controls were assessed according to Litchfield and Wilcoxon (1949).

mouse model of seizure = assay: Maximal electroshock seizure threshold (MEST) test in the mouse, Example 2; settings: CC50; 2.5 mg/kg i.p., 30 min pre-treatment
Method: The efficacy of CBD-C1 was tested in a mouse model of seizure, the maximal electroshock seizure threshold (MEST) test.
The maximal electroshock seizure threshold (MEST) test is widely utilized preclinically to evaluate pro- and anti-convulsant properties of molecules (Loscher et al., 1991).
In the MEST test the ability of a drug to alter the seizure threshold current required to induce hind limb tonic extensor convulsions is measured according to an “up and down” method of shock titration (Kimball et al., 1957). An increase in seizure threshold is indicative of anti-convulsant effect.
Naïve mice were acclimatised to the procedure room in their home cages, with food and water available ad libitum.
Animals were dosed i.p. according to dose group.
The vehicle (10 ml/kg i.p. 60 min pre-treatment time) was 1:1:18 vehicle 5% ethanol, 5% kolliphor EL, 90% saline. […]
Mice were individually assessed for the production of a tonic hind limb extensor seizure using a Hugo Sachs Electronik stimulator, which delivered an adjustable constant current (1-300 mA) of 0.1 s duration via corneal electrodes. […]
Induction of seizure is measured as an all-or-nothing effect scored as either present (+) or absent (0) for each animal.
Data was analysed by comparing treated groups with the appropriate vehicle control using Fisher's Exact Probability tests.

SMILES | % change from vehicle ([1]; 250 mg/kg i.p.) [%] | % change from vehicle (mouse model of seizure) [%] | % change from vehicle ([1]; 2.5 mg/kg i.p.) [%]
CCCC(CCC)C(=O)[O-].[Na+] [Sodium Valproate, sodium valproate, reference compound] | 1160 | – | –
CN1C(=O)CN=C(c2ccccc2)c2cc(Cl)ccc21 [Diazepam, diazepam, reference compound] | – | 68 | 247
